Target: T1, human GLP-1 receptor (Homo sapiens, UniProt P43220)
T1 construct: expressed in transfected cells
Experiment: GLP-1R cAMP Assay
Assay type: cell-based
Conditions: cAMP accumulation in CHO cells stably overexpressing the human GLP-1 receptor; 30 min treatment; HitHunter cAMP kit; read-out: EC50
In short: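 Luminescent enzyme-complementation detection of cAMP, read after cell lysis and overnight incubation, with dose-response curve fitting. Stimulation lasted 30 min, using 20-point triplicate dosing on CHO cells (10,000 per well) stably overexpressing human GLP-1R.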

T1 sequence (P43220 24-463): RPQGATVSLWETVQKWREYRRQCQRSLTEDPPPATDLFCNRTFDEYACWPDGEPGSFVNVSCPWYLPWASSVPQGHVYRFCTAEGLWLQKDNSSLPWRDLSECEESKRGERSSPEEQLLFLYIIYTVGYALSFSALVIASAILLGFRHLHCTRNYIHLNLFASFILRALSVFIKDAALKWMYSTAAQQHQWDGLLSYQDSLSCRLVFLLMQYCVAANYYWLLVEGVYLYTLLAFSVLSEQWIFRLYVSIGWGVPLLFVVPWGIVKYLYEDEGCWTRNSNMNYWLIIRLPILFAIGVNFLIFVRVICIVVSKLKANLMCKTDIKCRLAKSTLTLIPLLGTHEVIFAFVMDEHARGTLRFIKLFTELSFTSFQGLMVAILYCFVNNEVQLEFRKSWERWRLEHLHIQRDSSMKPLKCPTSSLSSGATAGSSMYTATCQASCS

| SMILES | EC50 |
| --- | --- |
| CCn1cncc1Cn1c(CN2CCC(Cc3cccc(COc4ccc(Cl)cc4Cl)n3)CC2)nc2ccc(C(=O)O)cc21 [Compound 140, 2-{[4-({6-[(2,4-dichlorophenoxy)methyl]pyridin-2-yl}methyl)piperidin-1-yl]methyl}-1-[(1-ethyl-1H-imidazol-5-yl)methyl]-1H-1,3-benzodiazole-6-carboxylic acid] | < 50 nM |
| CCn1cnnc1Cn1c(CN2CCC(Oc3ccnc(COc4ccc(Cl)cc4F)c3)CC2)nc2ccc(C(=O)O)cc21 [Compound 316] | < 50 nM |
| Cn1cncc1Cn1c(CN2CCC(Oc3cccc(COc4ccc(Cl)cc4Cl)c3)CC2)nc2ccc(C(=O)O)cc21 [Compound 255, 2-[(4-{3-[(2,4-dichlorophenoxy)methyl]phenoxy}piperidin-1-yl)methyl]-1-[(1-methyl-1H-imidazol-5-yl)methyl]-1H-1,3-benzodiazole-6-carboxylic acid] | < 50 nM |
| N#Cc1ccc(OCc2cc(OC3CCN(Cc4nc5c(F)cc(C(=O)O)cc5n4C[C@@H]4CCO4)CC3)ccn2)c(F)c1 [Compound 365] | < 50 nM |
| CCn1cncc1Cn1c(CN2CCN(C(=O)c3cccc(OCc4ccc(C#N)cc4F)c3)CC2)nc2ccc(C(=O)O)cc21 [Compound 67, 2-[(4-{3-[(4-cyano-2-fluorophenyl)methoxy]benzoyl}piperazin-1-yl)methyl]-1-[(1-ethyl-1H-imidazol-5-yl)methyl]-1H-1,3-benzodiazole-6-carboxylic acid] | > 500 nM |
| O=C(O)c1ccc2nc(CN3CCC(Oc4ccnc(COc5ccc(Cl)cc5F)c4)CC3)n(CC3(O)CC3)c2c1 [Compound 345] | < 50 nM |
| CCn1cncc1Cn1c(CN2CCC(Cc3cnc(COc4ccc(Cl)cc4Cl)o3)CC2)nc2ccc(C(=O)O)nc21 [Compound 125, 2-{[4-({2-[(2,4-dichlorophenoxy)methyl]-1,3-oxazol-5-yl}methyl)piperidin-1-yl]methyl}-3-[(1-ethyl-1H-imidazol-5-yl)methyl]-3H-imidazol[4,5-b]pyridine-5-carboxylic acid] | < 50 nM |
| O=C(O)c1ccc2nc(CN3CCC(Cc4cccc(COc5ccc(Cl)cc5Cl)c4)CC3)n(C[C@@H]3CCO3)c2c1 [Compound 103, 2-{[4-({3-[(2,4-dichlorophenoxy)methyl]phenyl}methyl)piperidin-1-yl]methyl}-1-{[(2S)-oxetan-2-yl]methyl}-1H-1,3-benzodiazole-6-carboxylic acid] | < 50 nM |
| O=C(O)c1cc(F)c2nc(CN3CCC(Oc4cccc(COc5ccc(C(F)F)cc5F)c4)CC3)n(CC3(CF)CC3)c2c1 [Compound 303] | < 50 nM |
| O=C(O)c1ccc2nc(CN3CCC(Cc4cccc(COc5ccc(Cl)cc5Cl)c4)CC3)n(C[C@H]3CCOC3)c2c1 [Compound 148, 2-{[4-({3-[(2,4-dichlorophenoxy)methyl]phenyl}methyl)piperidin-1-yl]methyl}-1-{[(3R)-oxolan-3-yl]methyl}-1H-1,3-benzodiazole-6-carboxylic acid] | < 50 nM |
| CCn1cncc1Cn1c(CN2CCC(Cc3cccc(COc4ccc(Cl)cc4C#N)c3)CC2)nc2ccc(C(=O)O)cc21 [Compound 165, 2-{[4-({3-[(4-chloro-2-cyanophenoxy)methyl]phenyl}methyl)piperidin-1-yl]methyl}-1-[(1-ethyl-1H-imidazol-5-yl)methyl]-1H-1,3-benzodiazole-6-carboxylic acid] | < 50 nM |
| CCn1cncc1Cn1c(CN2CCC(Cc3cccc(COc4ccc(C)cc4Cl)n3)CC2)nc2ccc(C(=O)O)cc21 [Compound 120, 2-{[4-({6-[(2-chloro-4-methylphenoxy)methyl]pyridin-2-yl}methyl)piperidin-1-yl]methyl}-1-[(1-ethyl-1H-imidazol-5-yl)methyl]-1H-1,3-benzodiazole-6-carboxylic acid] | < 50 nM |
| Cc1cc(C(=O)O)cc2c1nc(CN1CCC(Oc3ccnc(COc4ccc(C#N)cc4F)n3)CC1)n2C[C@@H]1CCO1 [Compound 484, 2-{[4-({2-[(4-cyano-2-fluorophenoxy)methyl]pyrimidin-4-yl}oxy)piperidin-1-yl]methyl}-4-methyl-1-{[(2S)-oxetan-2-yl]methyl}-1H-1,3-benzodiazole-6-carboxylic acid] | < 50 nM |
| O=C(O)c1ccc2nc(CN3CCN(C(=O)c4ccc(COc5ccc(Cl)cc5Cl)o4)CC3)n(C[C@@H]3CCO3)c2c1 [Compound 26, 2-[(4-{5-[(2,4-dichlorophenoxy)methyl]furan-2-carbonyl}piperazin-1-yl)methyl]-1-{[(2S)-oxetan-2-yl]methyl}-1H-1,3-benzodiazole-6-carboxylic acid] | 50 to 500 nM |
| CCn1cncc1Cn1c(CN2CC[C@H](Cc3cnc(COc4ccc(Cl)cc4Cl)o3)C[C@@H]2C)nc2ccc(C(=O)O)cc21 [Compound 279, 2-{[(2S,4S)-4-({2-[(2,4-dichlorophenoxy)methyl]-1,3-oxazol-5-yl}methyl)-2-methylpiperidin-1-yl]methyl}-1-[(1-ethyl-1H-imidazol-5-yl)methyl]-1H-1,3-benzodiazole-6-carboxylic acid] | < 50 nM |
| CCn1cncc1Cn1c(CN2CCC(Oc3cccnc3COc3ccc(Cl)cc3Cl)CC2)nc2ccc(C(=O)O)cc21 [Example 271, 2-((4-((2-((2,4-Dichlorophenoxy)methyl)pyridin-3-yl)oxy)piperidin-1-yl)methyl)-1-((1-ethyl-1H-imidazol-5-yl)methyl)-1H-benzo[d]imidazole-6-carboxylic acid] | 50 to 500 nM |
| N#Cc1ccc(OCc2cc(OC3CCN(Cc4nc5ccc(C(=O)O)cc5n4C[C@@H]4CCO4)CC3)c(F)cn2)c(F)c1 [Example 367, (S)-2-((4-((2-((4-Cyano-2-fluorophenoxy)methyl)-5-fluoropyridin-4-yl)oxy)piperidin-1-yl)methyl)-1-(oxetan-2-ylmethyl)-1H-benzo[d]imidazole-6-carboxylic acid] | < 50 nM |
| N#Cc1ccc(OCc2cc(OC3CCN(Cc4nc5ccc(C(=O)O)cc5n4C[C@@H]4CCO4)CC3)cnn2)c(F)c1 [Compound 491, 2-{[4-({6-[(4-cyano-2-fluorophenoxy)methyl]pyridazin-4-yl}oxy)piperidin-1-yl]methyl}-1-{[(2S)-oxetan-2-yl]methyl}-1H-1,3-benzodiazole-6-carboxylic acid] | < 50 nM |
| CCn1cncc1Cn1c(CN2CC[C@H](Oc3ccnc(COc4ccc(Cl)cc4Cl)c3)C[C@@H]2C)nc2ccc(C(=O)O)cc21 [Example 274, 2-(((2S,4S)-4-((2-((2,4-Dichlorophenoxy)methyl)pyridin-4-yl)oxy)-2-methylpiperidin-1-yl)methyl)-1-((1-ethyl-1H-imidazol-5-yl)methyl)-1H-benzo[d]imidazole-6-carboxylic acid] | < 50 nM |
| O=C(O)c1ccc2nc(CN3CCN(C(=O)c4cccc(Cc5ccc(F)cc5)c4)CC3)n(C[C@@H]3CCO3)c2c1 [Compound 3, 2-[(4-{3-[(4-fluorophenyl)methyl]benzoyl}piperazin-1-yl)methyl]-1-{[(2S)-oxetan-2-yl]methyl}-1H-1,3-benzodiazole-6-carboxylic acid] | > 500 nM |
| O=C(O)c1ccc2nc(CN3CCN(C(=O)c4ccc(COc5ccccc5)o4)CC3)n(C[C@@H]3CCO3)c2c1 [Compound 30, 1-{[(2S)-oxetan-2-yl]methyl}-2-({4-[5-(phenoxymethyl)furan-2-carbonyl]piperazin-1-yl}methyl)-1H-1,3-benzodiazole-6-carboxylic acid] | > 500 nM |
| C[C@H]1C[C@@H](Oc2ccnc(COc3ccc(C#N)cc3F)n2)CCN1Cc1nc2ccc(C(=O)O)nc2n1C[C@@H]1CCO1 [Compound 375] | < 50 nM |
| O=C(O)c1ccc2nc(CN3CCN(C(=O)c4cccc(Oc5ccc(Cl)cc5)c4)CC3)n(C[C@@H]3CCO3)c2c1 [Compound 7, 2-({4-[3-(4-chlorophenoxy)benzoyl]piperazin-1-yl}methyl)-1-{[(2S)-oxetan-2-yl]methyl}-1H-1,3-benzodiazole-6-carboxylic acid] | > 500 nM |
| CCn1cncc1Cn1c(CN2CCC(Oc3cccc(COc4ccc(Cl)cc4Cl)c3)CC2)nc2ccc(C(=O)O)cc21 [Example 157, 2-((4-(3-((2,4-Dichlorophenoxy)methyl)phenoxy)piperidin-1-yl)methyl)-1-((1-ethyl-1H-imidazol-5-yl)methyl)-1H-benzo[d]imidazole-6-carboxylic acid] | < 50 nM |
| O=C(O)c1ccc2nc(CN3CCN(C(=O)c4cccc(Oc5cc(Cl)ccc5Cl)c4)CC3)n(C[C@@H]3CCO3)c2c1 [Compound 11, 2-({4-[3-(2,5-dichlorophenoxy)benzoyl]piperazin-1-yl}methyl)-1-{[(2S)-oxetan-2-yl]methyl}-1H-1,3-benzodiazole-6-carboxylic acid] | > 500 nM |
| O=C(O)c1ccc2nc(CN3CCN(C(=O)c4ccc(OCc5ccc(Cl)cc5Cl)o4)CC3)n(C[C@@H]3CCO3)c2c1 [Example 73, (S)-2-((4-(5-((2,4-Dichlorobenzyl)oxy)furan-2-carbonyl)piperazin-1-yl)methyl)-1-(oxetan-2-ylmethyl)-1H-benzo[d]imidazole-6-carboxylic acid] | > 500 nM |
| N#Cc1ccc(OCc2nccc(OC3CCN(Cc4nc5ccc(C(=O)O)cc5n4C[C@@H]4CCO4)CC3)n2)c(Cl)c1 [Compound 369] | < 50 nM |
| N#Cc1cc(Cl)ccc1OCc1cc(OC2CCN(Cc3nc4ccc(C(=O)O)cc4n3Cc3cnco3)CC2)ccn1 [Compound 240, 2-{[4-({2-[(4-chloro-2-cyanophenoxy)methyl]pyridin-4-yl}oxy)piperidin-1-yl]methyl}-1-[(1,3-oxazol-5-yl)methyl]-1H-1,3-benzodiazole-6-carboxylic acid] | < 50 nM |
| O=C(O)c1cc(F)c2nc(CN3CCC(Oc4ccnc(COc5ccc(Cl)cc5F)n4)CC3)n(C[C@@H]3CCO3)c2c1 [Compound 315] | < 50 nM |
| N#CCC1(Cn2c(CN3CCC(Oc4ccnc(COc5ccc(F)cc5Cl)n4)CC3)nc3ccc(C(=O)O)cc32)CC1 [Compound 325] | < 50 nM |
